In patent US6485955B1, “Quiescent cell dipeptidyl peptidase: a novel cytoplasmic serine protease” (The Trustees of Tufts University, priority 1997, dated 2002):
Like-named read-outs stand apart in the source and are kept apart here. Values belong to the compound of their own block, whether it stands above or below them. Peptide text beside a SMILES is read from it. * marks the point of attachment. Cbz = O=C(OCc1ccccc1)*; CH2F = FC*

Tests used:
QPP = QPP (Homo sapiens, UniProt Q9UHL4); test: AlaProAFC cleavage by PBMC cytosolic preparation (QPP peptidase activity); type: biochemical; settings: for QPP inhibition (inhibitory profile): comparison with DPIV profile
activated PBMC = test: Induced death of activated PBMC (PHA blasts) and long term cultured cells; type: cell-based, human
Text: (§1) Methods. […] Sorted cell populations were >90% pure.

[1] = test system: purified T-cells (CD4+/CD8+); test: VbP-induced death of purified resting T-cells; type: cell-based, human; settings: for effect on VbP-mediated T-cell death: added with VbP, non-cycling T-cells
Text: as §1

CD11b+ monocytes = test: VbP-induced death of monocytes; type: cell-based, human
[2] = test system: phosphatidylserine (PS) on the surface of cells; test: FITC-annexin V detection of surface phosphatidylserine; type: cell-based, human; settings: cells treated with VbP
[3] = test system: peripheral blood mononuclear cells (PBMC); test: Cell death in overnight cultures of freshly isolated PBMC; settings: for number of dead cells / PCD induction in resting PBMC cultures: compared to media alone
CD19+ B cells = test: VbP-induced death of B cells; type: cell-based, human
[4] = test system: serum-starved, G0 phase fibroblasts; test: Apoptosis of serum-starved G0 fibroblasts transfected with QPP transgene; type: cell-based; settings: compared to non-QPP transfected fibroblasts
Text: The role of QPP in protecting quiescent (non-cycling) cells from death was confirmed in fibroblasts transfected with a QPP transgene sequence using standard techniques.

DPIV = DPIV (Homo sapiens, UniProt P27487); settings: cited from earlier work
[5] = PBMC cytosolic preparation, high concentrations

Chain of DPIV (P27487 whole entry): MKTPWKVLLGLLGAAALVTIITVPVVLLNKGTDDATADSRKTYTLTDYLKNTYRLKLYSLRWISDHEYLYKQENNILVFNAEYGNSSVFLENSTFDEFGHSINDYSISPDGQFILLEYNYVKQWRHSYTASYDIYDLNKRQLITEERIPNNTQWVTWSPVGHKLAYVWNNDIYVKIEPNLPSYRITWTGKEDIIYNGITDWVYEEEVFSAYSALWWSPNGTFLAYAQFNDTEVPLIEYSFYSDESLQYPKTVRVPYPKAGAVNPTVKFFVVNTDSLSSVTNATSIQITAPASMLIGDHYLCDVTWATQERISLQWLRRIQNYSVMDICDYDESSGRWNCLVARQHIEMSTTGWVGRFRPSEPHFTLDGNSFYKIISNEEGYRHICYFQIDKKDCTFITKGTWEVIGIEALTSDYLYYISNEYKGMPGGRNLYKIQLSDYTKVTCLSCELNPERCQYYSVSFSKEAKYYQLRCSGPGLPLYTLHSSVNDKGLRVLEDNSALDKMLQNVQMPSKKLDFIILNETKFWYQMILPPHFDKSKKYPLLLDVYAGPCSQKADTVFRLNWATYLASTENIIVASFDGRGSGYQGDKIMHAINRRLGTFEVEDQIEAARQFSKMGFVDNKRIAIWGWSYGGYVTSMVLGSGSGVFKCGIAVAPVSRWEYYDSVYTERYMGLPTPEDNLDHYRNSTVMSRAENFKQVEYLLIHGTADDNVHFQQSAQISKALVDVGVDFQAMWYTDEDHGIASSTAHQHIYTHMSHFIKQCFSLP

QPP inhibition (inhibitory profile) (QPP): did not inhibit QPP
Compound: (Z)-Ala-[CF═C]-Pro-NHO-Bz(4NO2) [L-125]

Compound: CC(C)[C@H](N)C(=O)N1CCC[C@H]1B(O)O [VbP, Val-boroPro]
susceptibility of activated PBMC to induced PCD (activated PBMC): resistant
susceptibility to VbP-induced PCD after return to non-cycling phase (G0) (activated PBMC; activated PBMC maintained in culture until G0): regain sensitivity
T-cell death in CD26+ versus CD26- resting T-cell subpopulations ([1]; CD26+ and CD26- resting T-cells): to the same degree
susceptibility to VbP-induced death ([1]; purified T-cells (CD4+/CD8+) vs whole PBMC): greater sensitivity than whole PBMC
susceptibility to VbP-induced death (CD11b+ monocytes): resistant
inhibition of cytosolic AlaProAFC cleaving enzymatic activity (QPP; PBMC cytosolic preparation (110,000 g supernatant)): inhibited
QPP inhibition (inhibitory profile) (QPP): most potent inhibitors
amount of PS on the surface of cells (FITC-annexin V) [2]: time-dependent increase
time at which dead cells were apparent after addition ([3]; PBMC cultures): 4 h
time to maximal death ([3]; PBMC cultures): ≤ 24 h
maximal death ([3]; PBMC cultures, within 24 hours): about 70%
number of dead cells / PCD induction in resting PBMC cultures [3]: striking increase in the number of dead cells
susceptibility to VbP-induced death (CD19+ B cells): resistant

inhibition of cytosolic AlaProAFC cleaving enzymatic activity (QPP; [5]): partially inhibited
Compound: N=C(N)c1ccccc1 [benzamidine]

Compound: O=S(=O)(F)Cc1ccccc1 [PMSF]
inhibition of cytosolic AlaProAFC cleaving enzymatic activity (QPP; [5]): partially inhibited

Compound: COC(=O)C[C@H](NC(=O)[C@H](C)NC(=O)[C@@H](NC(=O)OCc1ccccc1)C(C)C)C(=O)CF [Z-VADfmk] (Cbz-Val-Ala-Asp(OMe)-CH2F)
effect on VbP-mediated T-cell death [1]: blocked

Compound: NC(=O)CI [IAA]
inhibition of cytosolic AlaProAFC cleaving enzymatic activity (QPP): partially inhibited

Compound: Cc1ccc(S(=O)(=O)N[C@@H](CCCCN)C(=O)CCl)cc1 [TLCK]
inhibition of cytosolic AlaProAFC cleaving enzymatic activity (QPP): partially inhibited

QPP inhibition (inhibitory profile) (QPP): most potent inhibitors
Compound: NC(CCCCNC(=O)OCc1ccc([N+](=O)[O-])cc1)C(=O)N1CCSC1 (stereo not shown) [Lys-thiazolidide, NO2-Z-Lys-thiazolidide]

Compound: CC(C)[C@@H](N)C(=O)N1CCC[C@H]1B(O)O [d-Val-d-boroPro]
number of dead cells / PCD induction in resting PBMC cultures [3]: inactive

Compound: recombinant QPP: recombinant quiescent cell post-prolyl dipeptidase polypeptide expressed from a transgene in fibroblasts
apoptosis of quiescent fibroblasts [4]: inhibited apoptosis

Compound: CC(=O)N[C@@H](CSC(=O)[C@]1([C@@H](O)C(C)C)NC(=O)[C@H](C)[C@@H]1O)C(=O)O [lactacystin]
susceptibility of activated PBMC to induced PCD (activated PBMC): susceptible
effect on VbP-mediated T-cell death [1]: neither the anti-Fas mAb M3 nor lactacystin had any effect
number of dead cells / PCD induction in resting PBMC cultures [3]: does not induce PCD

Compound: CCN1C(=O)C=CC1=O [NEM]
inhibition of cytosolic AlaProAFC cleaving enzymatic activity (QPP): partially inhibited

Compound: NC(CCCCNC(=O)OCc1ccc([N+](=O)[O-])cc1)C(=O)N1CCCCC1 (stereo not shown) [Lys-piperidide, NO2-Z-Lys-piperidide]
QPP inhibition (inhibitory profile) (QPP): did inhibit QPP at higher concentrations than Lys-thiazolidide
DPIV inhibition (DPIV): does not inhibit DPIV
